Key:
Kunming mice [1] = assay: Acute toxicity / median lethal dose (LD50) determination, subcutaneous injection; assay type: in vivo; parameters: key to Acute toxicity: if death occurred, (+) represented as positive; if no death occurred, (−) represented as negative; settings: mice administered 20 mg/kg subcutaneously, presence of death within 24 h
How it was run: (§1)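 Kunming mice (22±2 g, 1:1 male:female, fasted 12 h), 10 per group, given compound subcutaneously at 0.1 mL/10 g in saline after 1:1 molar dissolution in 0.1 mol/L HCl. At least 5 proportional dose groups set from a 20 mg/kg pilot; 24 h survival, LD50 by Probit regression.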

[2] = as above; assay type: in vivo, mice; parameters: key to Acute toxicity: if death occurred, (+) represented as positive; if no death occurred, (−) represented as negative; settings: both sexes, Kunming, mouse, in vivo, sc; mice, subcutaneous, survival within 24 h, Probit regression; >X = no death or toxic symptoms at X mg/kg
How it was run: as §1

Kunming mice [3] = assay: Calculation of therapeutic index (TI = LD50/ED50); assay type: in vivo
Protocol: (3) Calculation of Therapeutic Index (TI)
The therapeutic index of each compound was calculated based on the median effective dose and the median lethal dose, which were specifically as follows: therapeutic index (TI)=median lethal dose (LD50)/median effective dose (ED50).

RAW 264.7 cells = assay: MTT assay, viability of RAW 264.7 cells; assay type: cell-based; settings: compound diluted to 30 mol/L (so in the source), 12 h
Protocol: (§2) The effect of the compound to be tested on viability of RAW 264.7 cells at a concentration of […] was assessed through MTT assay (Methylthiazolyldiphenyl-tetrazolium bromide assay), and the inhibition on NO release in the inflammatory response of LPS-induced RAW 264.7 cells at 30 µM was determined through Griess method. Specific methods were described as follows.
An MTT solution (5 mg/mL) was prepared with a PBS buffer, filter-sterilized through a 0.22 μm filter membrane, and stored protected from light at low temperature. Each compound was dissolved in DMSO to prepare a 50 mmol/L stock solution, and stored from light at low (frozen) temperature. The stock solution was diluted to 30 mol/L with DMEM (Dulbecco's modified Eagle's medium) containing 10% FBS (fetal bovine serum). RAW264.7 cells beyond third passage were added to a culture medium and gently pipetted to detach, forming a cell suspension. 10 μL of the cell suspension was applied onto a hemocytometer slide for counting, and cells were seeded into 96-well plates at a density of 6×10^3 cells per well with 100 μL of the cell suspension per well. After incubated at 37° C. with 5% CO2 for 24 h, supernatant was removed. A zero-adjustment group (CO group) received 100 μL of medium per well, the blank group (CK group) received 100 μL of DMSO (1/1000 dilution) per well, and the experimental groups received 100 μL of the test samples per well. After 12 h, supernatant was removed, and […] of MTT solution was added into each well at 120 μL per well. After incubated in COz at a constant temperature for 4 h, supernatant was removed, and DMSO was added into each well by 150 μL per well. The mixture was shaken at 50 r/min for 10 min and subjected to an absorbance test at 492 nm. Relative cell viability (x) was calculated through a formula as follows: relative cell viability (%)=(ODTest−ODCO)/(ODCK−ODCO)×100%.

Kunming mice [4] = assay: Analgesic activity by acetic acid-induced writhing method (writhing inhibition rate, ED50); assay type: in vivo; settings: Mus musculus, sc, acetic acid-induced writhing, mice, subcutaneous; for ED50: Probit regression, read-out: ED50; for inhibition in vivo at 0.05 mg/kg: dosing concentration 0.05 mg/kg; for inhibition in vivo at 0.05 mg/kg / inhibition in vivo at 0.5 mg/kg: read-out: Analgesia rate (%) ± SEM; for inhibition in vivo at 0.5 mg/kg: dosing concentration 0.5 mg/kg
How it was run: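 Kunming mice (22±2 g, 1:1 sex, 12 h fasted, 10/group) got compound s.c. (dissolved 1:1 molar with 0.1 mol/L HCl, diluted in saline); 0.7% acetic acid i.p. 15 min later, writhes counted over 15 min. Inhibition rate vs saline blank; ED50 by Probit regression over ≥5 doses.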

[5] = system: LPS-induced RAW 264.7 cells; assay: Griess assay, inhibition of NO release in LPS-induced RAW 264.7 cells; assay type: cell-based; settings: Griess method, compound at 30 M (so in the source), 22 h
Protocol: as §2
RAW264.7 cells beyond third passage were added to a culture medium and gently pipetted to detach, forming a cell suspension. 10 μL of the cell suspension was applied onto a hemocytometer slide for counting, and cells were seeded into a 96-well plate at a density of 3×10^4 cells per well with 100 μL of the cell suspension per well. After incubated at 37° C. with […] for 24 h, supernatant was removed. The blank group received 100 μL of DMSO (1/1000 dilution) per well, a LPS (lipopolysaccharide) group received 100 μL of DMSO (1/1000 dilution) per well, and the experimental groups received 100 μL of the test samples per well. The LPS group received 1 μg/ml of LPS by […] per well, and the experimental groups received […] of LPS by 3 μg per well. After 22 h, 50 μL of supernatant was transferred into another 96-well plate, added with Griess Reagent I in a NO assay kit by 50 μL per well, then added with Griess Reagent II by 50 μL per well, and subjected to an absorbance test at 562 nm. Nitric oxide (NO) concentration was calculated based on a standard curve, which was specifically as follows: NO inhibition rate (%)=(ODLPS−ODTest)/(ODLPS−ODBlank)×100).

SMILES	Acute toxicity (Kunming mice [1])	LD50 [2] [mg/kg]	TI (Kunming mice [3])	RAW cell viability (RAW 264.7 cells)	ED50 (Kunming mice [4]) [mg/kg]	inhibition in vivo at 0.05 mg/kg (Kunming mice [4]) [%]	Inflammatory NO inhibition rate [5] [%]	inhibition in vivo at 0.5 mg/kg (Kunming mice [4]) [%]
CCO[C@]12C[C@H](OC)[C@@]3(OC(=O)C4CCCCC4)CC(C1[C@H]3OC(=O)C1CCCCC1)[C@]13C4[C@@H](OC)C2[C@H]1N(CC)C[C@]4(COC)CC[C@@H]3OC (stereo partly shown) [Compound 5]	−	> 100	>1204.8	28.05 ± 4.84 %	0.083	49.7 ± 1.1		
CCO[C@]12C[C@H](OC)[C@@]3(OC(=O)c4ccco4)CC(C1[C@H]3OC(=O)c1ccco1)[C@]13C4[C@@H](OC)C2[C@H]1N(CC)C[C@]4(COC)CC[C@@H]3OC (stereo partly shown) [Compound 6]	−	> 600	>8695.7	92.23 ± 1.29 ns %	0.069	59.8 ± 2.3	22 ± 4.41	
CCO[C@]12C[C@H](OC)[C@@]3(OC(=O)c4ccc(OC)cc4)CC(C1[C@H]3OC(=O)c1ccc(OC)cc1)[C@]13C4[C@@H](OC)C2[C@H]1N(CC)C[C@]4(COC)CC[C@@H]3OC (stereo partly shown) [Compound 13]	−	> 100	>1219.5	8.29 ± 2.8 %	0.082	49.4 ± 1.3		
CCO[C@]12C[C@H](OC)[C@@]3(OC(=O)c4ccco4)CC(C1[C@H]3OC(=O)c1ccc(OC)cc1)[C@]13C4[C@@H](OC)C2[C@H]1N(CC)C[C@]4(COC)CC[C@@H]3OC (stereo partly shown) [Compound 15]	−	56.4	773	104.18 ± 6.16 ns %	0.073	57.6 ± 1.3	5 ± 2.17	
CCO[C@]12C[C@H](OC)[C@@]3(OC(=O)C4CCOCC4)CC(C1[C@H]3OC(=O)C1CCOCC1)[C@]13C4[C@@H](OC)C2[C@H]1N(CC)C[C@]4(COC)CC[C@@H]3OC (stereo partly shown) [Compound 23]	−	> 100	>1369.9	81.35 ± 3.48 %	0.073	57.9 ± 0.6		
CCO[C@]12C[C@H](OC)[C@@]3(OC(=O)c4cccnc4)CC(C1[C@H]3OC(=O)c1cccnc1)[C@]13C4[C@@H](OC)C2[C@H]1N(CC)C[C@]4(COC)CC[C@@H]3OC (stereo partly shown) [Compound 27]	−	> 600	>18181.8	87.20 ± 7.66 ^ %	0.033	62 ± 1.6	7 ± 2.16	
CCN1C[C@]2(COC)CC[C@H](OC)[C@@]34C5C[C@]6(OC(=O)c7cccnc7)[C@@H](OC)C[C@@](OC(C)=O)(C5[C@H]6OC(=O)c5ccc(OC)cc5)C([C@H](OC)C23)[C@@H]14 (stereo partly shown) [Compound 29]	−	41.2	27.9	116.43 ± 15.6 ^ %	1.48	47.9 ± 1.8	20 ± 1.12	65.6 ± 1.3
CCO[C@]12C[C@H](OC)[C@@]3(OC(=O)c4ccc([N+](=O)[O-])cc4)CC(C1[C@H]3OC(=O)c1ccc(OC)cc1)[C@]13C4[C@@H](OC)C2[C@H]1N(CC)C[C@]4(COC)CC[C@@H]3OC (stereo partly shown) [Compound 39]	−	> 100	>512.8	6.97 ± 0.93 %	0.195	51.1 ± 1.4		
CCO[C@]12C[C@H](OC)[C@@]3(OC(=O)c4ccccc4)CC(C1[C@H]3OC(=O)c1ccccc1)[C@]13C4[C@@H](OC)C2[C@H]1N(CC)C[C@]4(COC)CC[C@@H]3OC (stereo partly shown) [Compound 52]	−	> 100	>208.8	7.00 ± 0.98 %	0.479	47 ± 1.8		64.2 ± 1.3
CCO[C@]12C[C@H](OC)[C@@]3(OC(=O)c4ccc(F)cc4)CC(C1[C@H]3OC(=O)c1ccc(OC)cc1)[C@]13C4[C@@H](OC)C2[C@H]1N(CC)C[C@]4(COC)CC[C@@H]3OC (stereo partly shown) [Compound 60]	−	> 100	>819.7	96.09 ± 7.95 ns %	0.122	50 ± 1.4	2 ± 2.82	
CCO[C@]12C[C@H](OC)[C@@]3(OC(=O)CC(C)(C)C)CC(C1[C@H]3OC(=O)CC(C)(C)C)[C@]13C4[C@@H](OC)C2[C@H]1N(CC)C[C@]4(COC)CC[C@@H]3OC (stereo partly shown) [Compound 88]	−	> 100	>621.1	74.05 ± 10.06 %	0.161	47.7 ± 0.6		65.07 ± 0.6
CCO[C@]12C[C@H](OC)[C@@]3(OC(=O)CC(C)(C)C)CC(C1[C@H]3OC(=O)c1ccc(OC)cc1)[C@]13C4[C@@H](OC)C2[C@H]1N(CC)C[C@]4(COC)CC[C@@H]3OC (stereo partly shown) [Compound 90]	−			101.74 ± 7.63 ns %		41.9 ± 1.9	12 ± 4.85	59 ± 0.8
